What was measured:
[1] = test system: BALB/c spleen cells cultured with irradiated C57BL/6 spleen cells; assay: Allo-reactivity: six day mixed lymphocyte reaction and restimulation; format: cell-based, BALB/c mice; settings: 500 nM, six days
Description: After six days, cultures were harvested and cytokine production and spleen cell proliferation was analyzed. […] Cytokines were measured in cell supernatants by ELISA. […] At the conclusion of the cultures described in FIG. 9A, total viable cells were counted by trypan blue exclusion and immune cell subsets were identified by flow cytometry using the markers indicated in FIG. 9B. […] Substantial B cell proliferation occurred in IAP inhibited cultures (FIG. 9B). The activation enhancing effects of IAP inhibition were readily reversed; in allo-reactive T cells, secondary stimulations with anti-CD3 in the absence of inhibitors led to equivalent responses regardless of the previous culture conditions (FIG. 10). Cells stimulated in a six day mixed lymphocyte reaction were recovered and restimulated with anti-CD3 for 48 hours. Cytokines were measured in culture supernatants by ELISA. Sample labels indicated in FIG. 10 refer to the treatment used during the primary stimulation.

[2] = test system: CD4+ T cells from MLIAP transgenic mice; assay: IL-2 production of ML-IAP transgenic CD4+ T cells (ELISA); format: cell-based, BALB/c mice; settings: anti-CD3 and anti-CD28; 48 hours
Text: Whether overexpression of ML-IAP, an endogenous SMAC binding protein, could alter the response of T cells to activating stimuli was also examined.

[3] = test system: BALB/c splenic CD4+ T cells; assay: Survival and apoptosis of anti-CD3/anti-CD28 activated CD4+ T cells; format: cell-based, BALB/c mice
Description: The role of IAP family members in mature NKT cell survival was assessed. […] After 24 hours viable cells were quantified by trypan blue exclusion, and the resulting cell counts are depicted in FIG. 2A. Apoptotic cells were quantified in the cultures from FIG. 2A using flow cytometry with annexin V and 7-AAD (results are depicted in FIG. 2B).

B16 mouse melanoma cells = assay: B16 vaccination and live tumor challenge in vivo; parameters: species or system mice; settings: single oral dose 150 mg/kg in combination with irradiated B16 vaccine; compared with LBW-242 or vaccine alone; days 7-16
Description: . Irradiated B16 mouse melanoma cells (vaccine) were administered to mice on days −14 and −7 with or without a single oral dose of LBW-242 (150 mg/kg). Live B16 tumor cells were implanted into the mice on day 0 (challenge). Tumor volume was measured at 7, 10, 13 and 16 days following the live cell implant. […].

JNK and NF-κB pathways = assay: Western blot of JNK phosphorylation and IκB degradation in stimulated CD4+ T cells; format: cell-based
Description: In order to investigate the mechanism linking IAP inhibition to enhanced, activation-dependent cytokine production, the effect of IAP inhibition on JNK phosphorylation and IκB degradation in stimulated CD4+ T cells was assessed by Western blot. […] Replicates were combined and cell lysates were analyzed by Western blot for the indicated proteins. PDI was used as a loading control.

CD8+ T cells = assay: Cytokine production of stimulated CD8+ T cells (ELISA); format: cell-based, C57BL/6 mice; settings: anti-CD3 and anti-CD28; 48 hours
Description: Because the observed effect of IAP inhibition in T cells could still depend on alterations in NKT cell function, the consequences of IAP inhibition were assessed in NKT cell deficient CD1d knockout C57BL/6 mice. […] The effect of IAP inhibition was not limited to CD4+ T cells, as CD8+ T cells similarly produced excess IFN-γ and IL-2 after stimulation in the presence of IAP inhibitors (FIG. 5).

B cells = settings: 500 nM; anti-IgM and anti-CD40; 96 hours; compared to control cells
Description: Because the JNK and NF-κB pathways play important roles in signaling down stream of a wide range of immune receptors, we analyzed the effect of IAP inhibitors in several additional immune populations. […] IL-6 was measured in the culture supernatant by ELISA.

BALB/c spleen cells = assay: Cytokine secretion of α-galcer stimulated spleen cells (ELISA); format: cell-based, BALB/c mice; settings: 500 nM, 48 hours, versus control compound
Description: In order to determine the functional consequences of IAP inhibition in NKT cells, spleen cells from BALB/c mice were stimulated with the NKT cell specific agonist α-galactosylceramide (α-galcer). […]. After 48 hours, cytokine levels were measured in the culture supernatants by ELISA, and the results are depicted in FIG. 3A (IFNγ) and FIG. 3B (IL-2). […].

[4] = test system: CD4+ T cells from XIAP KO mice; assay: IL-2 production of XIAP knockout CD4+ T cells (ELISA); settings: anti-CD3 and anti-CD28; 48 hours; versus LCV-843
splenic CD4+ T cells = assay: IL-2 production of anti-CD3/anti-CD28 stimulated CD4+ T cells (ELISA); format: cell-based, BALB/c mice
[5] = test system: bone marrow derived dendritic cells; assay: IL-12 p40 production of bone marrow derived dendritic cells (ELISA); settings: 500 nM; cluster disruption; 24 hours
[6] = versus control compound LCV-843
[7] = 500 nM, anti-CD3 and anti-CD28, 24 hours

## CN[C@H](C)C(=O)N[C@@H](C(=O)N1CCC2CCN(CCc3ccccc3)CC21)C1CCCCC1 (stereo in doubt) [LBW-242, N-[1-cyclohexyl-2-oxo-2-(6-phenethyl-octahydro-pyrrolo[2,3-c]pyridin-1-yl)-ethyl]-2-methylamino-propionamide]
[1]
  B cell proliferation: Substantial
  CD4 T cell proliferation: significant
[1]; [6]
  IFN-γ secretion: significantly enhanced
  IL-2 levels: significantly reduced
[2]
  reduced IL-2 secretion of ML-IAP transgenic T cells: could be modulated
[3]; 500 nM, 24 hours
  NKT cells in culture (anti-CD3 and α-galcer loaded CD1d tetramers): still detectable in culture at normal frequencies
[3]; [7]
  apoptosis (annexin V and 7-AAD): nor did it contribute to apoptosis
  total number of T cells (viable cells, trypan blue exclusion): did not alter
[3]; no stimulation
  apoptosis in the absence of stimulation: no discernible effect
B16 mouse melanoma cells
  tumor burden following challenge with live B16 cells: reduced
JNK and NF-κB pathways; 500 nM
  bcl-10 levels in activated T cells: did not lead to a detectable change
JNK and NF-κB pathways; 500 nM, anti-CD3 and anti-CD28, versus control compound LCV-843
  activation of JNK and NF-κB pathways (JNK phosphorylation, IκB degradation): activated more rapidly
JNK and NF-κB pathways; no stimulation
  JNK phosphorylation and IκB degradation in the absence of stimulation: No changes
CD8+ T cells
  IFN-γ production: excess
  IL-2 production: excess
B cells
  IL-6 production: increased
BALB/c spleen cells
  IFN-γ secretion: increased secretion
  IL-2 secretion: increased secretion
[4]
  cytokine (IL-2) secretion of XIAP deficient T cells: only a small increase
Splenic CD4+ T cells; isotype control, no stimulation
  effects from IAP inhibition in the absence of stimulation: No effects
Splenic CD4+ T cells; unfractionated BALB/c or C57BL/6 CD4+ T cells, anti-CD3 and anti-CD28, 48 hours
  IL-2 production: similar, dose-dependent effect
[5]
  IL-12 p40 production, partially activated DCs: increased

— patent US10786491B2, “Immunomodulation by IAP inhibitors” (Novartis AG, priority 2008, dated 2020)
